Values after ≈ are worked out from the molar mass of the structure shown. Read-outs that look alike come from different tables or passages of the source.
Experiments:
Assay in all cases: MIC, standard agar-dilution assay
Format in all cases: cell-based
[1] = test system: Staphylococcus aureus X1.1; details: Staphylococcus aureus, X1.1, read-out: minimal inhibitory concentration (MIC)
[2] = test system: Haemophilus influenzae C.L.; details: Haemophilus influenzae, read-out: minimal inhibitory concentration (MIC)
[3] = test system: Streptococcus sp. group D 2041; details: Streptococcus, read-out: minimal inhibitory concentration (MIC)
[4] = test system: Staphylococcus epidermidis 222
[5] = test system: Klebsiella pneumoniae X68; details: Klebsiella pneumoniae
[6] = test system: Streptococcus sp. group D X66; details: Streptococcus, read-out: minimal inhibitory concentration (MIC)
[7] = test system: Escherichia coli EC14; details: Escherichia coli
[8] = test system: Haemophilus influenzae 76; details: Haemophilus influenzae, 76, ampicillin-resistant strain, read-out: minimal inhibitory concentration (MIC)
[9] = test system: Streptococcus pyogenes C203; details: Streptococcus pyogenes
[10] = test system: Streptococcus pneumoniae Park I; details: Streptococcus pneumoniae, read-out: minimal inhibitory concentration (MIC)
[11] = test system: Staphylococcus aureus S13E; details: Staphylococcus aureus, S13E, read-out: minimal inhibitory concentration (MIC)
[12] = test system: Staphylococcus aureus X400; details: Staphylococcus aureus, X400, methicillin-resistant strain, inducibly erythromycin-resistant, read-out: minimal inhibitory concentration (MIC)
From the text: (§1) In addition to excellent in vitro activity against erythromycin-sensitive bacteria, several members of this new series have shown in vitro activity against erythromycin-resistant strains. These include strains which are inducibly-resistant to erythromycin (S. aureus V41 and X400 and S. epidermidis EPI1) and even strains which are constitutively-resistant (S. epidermidis 270).

[13] = test system: Staphylococcus epidermidis 270; details: Staphylococcus epidermidis, 270; Table IV; constitutively erythromycin-resistant; read-out: minimal inhibitory concentration (MIC)
From the text: as §1

[14] = test system: Staphylococcus aureus V41; details: Staphylococcus aureus, V41, penicillin-resistant strain, inducibly erythromycin-resistant, read-out: minimal inhibitory concentration (MIC)
From the text: as §1

[15] = test system: Staphylococcus epidermidis EPI1; details: EPI1, read-out: minimal inhibitory concentration (MIC)
From the text: as §1

[16] = X68, Table IV, agar dilution, read-out: minimal inhibitory concentration (MIC)
[17] = EC14, read-out: minimal inhibitory concentration (MIC)
[18] = C203, read-out: minimal inhibitory concentration (MIC)
[19] = Staphylococcus epidermidis, 222, read-out: minimal inhibitory concentration (MIC)
[20] = X68, read-out: minimal inhibitory concentration (MIC)
[21] = EC14, Table IV, agar dilution, read-out: minimal inhibitory concentration (MIC)
[22] = Table IV, ampicillin-sensitive strain
[23] = EC14, Table V, agar dilution, read-out: minimal inhibitory concentration (MIC)
[24] = X68, Table V, agar dilution, read-out: minimal inhibitory concentration (MIC)

Row | SMILES | MIC [1] [µg/mL] | MIC [2] [µg/mL] | MIC [3] [µg/mL] | MIC ([8]; Table IV) [µg/mL] | MIC [9, 18] [µg/mL] | MIC [11] [µg/mL] | MIC ([12]; Table IV) [µg/mL] | MIC [13] [µg/mL] | MIC ([14]; Table IV) [µg/mL] | MIC [4, 19] [µg/mL] | MIC [6] [µg/mL] | MIC [10] [µg/mL] | MIC [15] [µg/mL] | MIC ([12]; Table V) [µg/mL] | MIC ([14]; Table V) [µg/mL] | MIC [7, 23] [µg/mL] | MIC [5, 24] [µg/mL] | further results
1 | CC[C@H]1OC(=O)[C@H](C)[C@@H](O[C@H]2C[C@@](C)(OC)[C@@H](O)[C@H](C)O2)[C@H](C)[C@@H](O[C@@H]2O[C@H](C)C[C@H](N(C)C)[C@H]2O)[C@](C)(O)C[C@@H](C)[C@H](NCCOC)[C@H](C)[C@@H](O)[C@]1(C)O [Compound 31, 9-Deoxo-9-[(2-Methoxyethyl)amino]erythromycin] | 0.5 (≈ 0.63 µM) | 0.5 (≈ 0.63 µM) | 8 (≈ 10.1 µM) | 2 (≈ 2.52 µM) | 0.06 (≈ 0.0757 µM) | 0.5 (≈ 0.63 µM) | > 128 | > 128 | > 128 | – | – | – | – | – | – | – | – | MIC ([4]; Staphylococcus epidermidis, 222, Table IV, agar dilution, read-out: minimal inhibitory concentration (MIC)): 0.25 µg/mL (≈ 0.315 µM); MIC [5, 16]: 32 µg/mL (≈ 40.4 µM); MIC ([6]; Table IV, agar dilution): 0.125 µg/mL (≈ 0.158 µM); MIC [7, 17]: 16 µg/mL (≈ 20.2 µM); MIC ([10]; Table IV, agar dilution): 0.03 µg/mL (≈ 0.0378 µM)
2 | CCCN[C@@H]1[C@H](C)[C@@H](O)[C@@H](C)[C@@H](CC)OC(=O)[C@H](C)[C@@H](O[C@H]2C[C@@](C)(OC)[C@@H](O)[C@H](C)O2)[C@H](C)[C@@H](O[C@@H]2O[C@H](C)C[C@H](N(C)C)[C@H]2O)[C@](C)(O)C[C@H]1C [Compound 38] | 0.5 (≈ 0.657 µM) | 2 (≈ 2.63 µM) | 2 (≈ 2.63 µM) | 4 (≈ 5.26 µM) | 0.125 (≈ 0.164 µM) | 1 (≈ 1.31 µM) | 64 (≈ 84.1 µM) | > 128 | 8 (≈ 10.5 µM) | 0.5 (≈ 0.657 µM) | 0.125 (≈ 0.164 µM) | 0.125 (≈ 0.164 µM) | – | – | – | – | – | MIC [5, 20]: 128 µg/mL (≈ 168 µM); MIC [7, 21]: 64 µg/mL (≈ 84.1 µM)
3 | CCCCCCCCCCN[C@@H]1[C@H](C)[C@@H](O)[C@@H](C)[C@@H](CC)OC(=O)[C@H](C)[C@@H](O[C@H]2C[C@@](C)(OC)[C@@H](O)[C@H](C)O2)[C@H](C)[C@@H](O[C@@H]2O[C@H](C)C[C@H](N(C)C)[C@H]2O)[C@](C)(O)C[C@H]1C [Compound 41] | 2 (≈ 2.33 µM) | – | – | 4 (≈ 4.66 µM) | – | 1 (≈ 1.16 µM) | 4 (≈ 4.66 µM) | 8 (≈ 9.31 µM) | 4 (≈ 4.66 µM) | 0.5 (≈ 0.582 µM) | 0.5 (≈ 0.582 µM) | – | – | – | – | – | – | MIC [2, 22]: 8 µg/mL (≈ 9.31 µM); MIC ([3]; Table IV, agar dilution): 4 µg/mL (≈ 4.66 µM); MIC [5, 16]: > 128 µg/mL; MIC [7, 21]: > 128 µg/mL; MIC ([9]; C203, Table IV, agar dilution, read-out: minimal inhibitory concentration (MIC)): 0.03 µg/mL (≈ 0.0349 µM); MIC ([10]; Table IV, agar dilution): 0.03 µg/mL (≈ 0.0349 µM)
4 | CC[C@H]1OC(=O)[C@H](C)[C@@H](O[C@H]2C[C@@](C)(OC)[C@@H](O)[C@H](C)O2)[C@H](C)[C@@H](O[C@@H]2O[C@H](C)C[C@H](N(C)C)[C@H]2O)[C@](C)(O)C[C@@H](C)[C@H](NCCOCCOC)[C@H](C)[C@@H](O)[C@H]1C [Compound 49] | 1 (≈ 1.22 µM) | – | – | 8 (≈ 9.74 µM) | 0.015 (≈ 0.0183 µM) | 0.5 (≈ 0.609 µM) | > 128 | > 128 | 128 (≈ 156 µM) | 1 (≈ 1.22 µM) | 0.25 (≈ 0.304 µM) | 0.015 (≈ 0.0183 µM) | – | – | – | – | – | MIC [2, 22]: 4 µg/mL (≈ 4.87 µM); MIC ([3]; Table IV, agar dilution): 4 µg/mL (≈ 4.87 µM); MIC [5, 20]: 128 µg/mL (≈ 156 µM); MIC [7, 17]: 128 µg/mL (≈ 156 µM)
5 | CCCN1CO[C@@H]2[C@@H](C)[C@@H]1[C@H](C)C[C@@](C)(O)[C@H](O[C@@H]1O[C@H](C)C[C@H](N(C)C)[C@H]1O)[C@@H](C)[C@H](O[C@H]1C[C@@](C)(OC)[C@@H](O)[C@H](C)O1)[C@@H](C)C(=O)O[C@H](CC)[C@@]2(C)O [Compound 59] | – | – | – | – | – | – | – | – | – | 0.125 (≈ 0.158 µM) | 0.125 (≈ 0.158 µM) | – | > 128 | – | – | – | – | –
6 | CC[C@H]1OC(=O)[C@H](C)[C@@H](O[C@H]2C[C@@](C)(OC)[C@@H](O)[C@H](C)O2)[C@H](C)[C@@H](O[C@@H]2O[C@H](C)C[C@H](N(C)C)[C@H]2O)[C@](C)(O)C[C@@H](C)[C@H]2[C@H](C)[C@@H](OCN2C2CCCC2)[C@]1(C)O [Compound 60, 9-Deoxo-9-(cyclopentylamino)-9,11(N,O)-cyclic Methylene Adduct of Erythromycin] | 1 (≈ 1.23 µM) | – | 8 (≈ 9.81 µM) | – | 0.125 (≈ 0.153 µM) | – | – | – | – | 1 (≈ 1.23 µM) | 0.5 (≈ 0.613 µM) | 0.06 (≈ 0.0736 µM) | > 128 | > 128 | > 128 | – | – | –
7 | CC[C@H]1OC(=O)[C@H](C)[C@@H](O[C@H]2C[C@@](C)(OC)[C@@H](O)[C@H](C)O2)[C@H](C)[C@@H](O[C@@H]2O[C@H](C)C[C@H](N(C)C)[C@H]2O)[C@](C)(O)C[C@@H](C)[C@H]2[C@H](C)[C@@H](OCN2C(C)CCCN(C)C)[C@]1(C)O (stereo partly shown) [Compound 63, 9-Deoxo-9-[(5-dimethylamino-2-pentyl)amino]-9,11-(N,O)-cyclic-Methylene Adduct of Erythromycin] | 8 (≈ 9.3 µM) | – | – | – | 0.5 (≈ 0.581 µM) | 8 (≈ 9.3 µM) | – | – | – | 8 (≈ 9.3 µM) | 2 (≈ 2.33 µM) | 0.5 (≈ 0.581 µM) | > 128 | > 128 | > 128 | 32 (≈ 37.2 µM) | – | MIC ([2]; Table V, ampicillin-sensitive strain): 8 µg/mL (≈ 9.3 µM); MIC ([3]; Table V, agar dilution): 32 µg/mL (≈ 37.2 µM); MIC [5, 20]: 128 µg/mL (≈ 149 µM); MIC ([8]; Table V): 8 µg/mL (≈ 9.3 µM)
8 | CC[C@H]1OC(=O)[C@H](C)[C@@H](O[C@H]2C[C@@](C)(OC)[C@@H](O)[C@H](C)O2)[C@H](C)[C@@H](O[C@@H]2O[C@H](C)C[C@H](N(C)C)[C@H]2O)[C@](C)(O)C[C@@H](C)[C@H](N(C)C)[C@H](C)[C@@H](O)[C@]1(C)O [Compound 69, 9-Deoxo-9-(dimethylamino)erythromycin] | – | 2 (≈ 2.62 µM) | – | – | 0.25 (≈ 0.328 µM) | – | – | – | – | 2 (≈ 2.62 µM) | 0.5 (≈ 0.655 µM) | – | > 128 | – | – | – | > 128 | MIC [7, 17]: 128 µg/mL (≈ 168 µM)
9 | CC[C@H]1OC(=O)[C@H](C)[C@@H](O[C@H]2C[C@@](C)(OC)[C@@H](O)[C@H](C)O2)[C@H](C)[C@@H](O[C@@H]2O[C@H](C)C[C@H](N(C)C)[C@H]2O)[C@](C)(O)C[C@@H](C)[C@H](N(C)C(C)C)[C@H](C)[C@@H](O)[C@]1(C)O [Compound 70, 9-Deoxo-9-[(N-methyl-N-isopropyl)amino]erythromycin] | 8 (≈ 10.1 µM) | – | – | – | 0.5 (≈ 0.632 µM) | – | – | – | – | 8 (≈ 10.1 µM) | 2 (≈ 2.53 µM) | 0.5 (≈ 0.632 µM) | > 128 | > 128 | > 128 | > 128 | > 128 | –
10 | CC[C@H]1OC(=O)[C@H](C)[C@@H](O[C@H]2C[C@@](C)(OC)[C@@H](O)[C@H](C)O2)[C@H](C)[C@@H](O[C@@H]2O[C@H](C)C[C@H](N(C)C)[C@H]2O)[C@](C)(O)C[C@@H](C)[C@H](N(C)C2CCCCC2)[C@H](C)[C@@H](O)[C@]1(C)O [Compound 71, 9-Deoxo-9-[(N-cyclohexyl-N-methyl)amino]erythromycin] | 16 (≈ 19.3 µM) | – | 128 (≈ 154 µM) | – | 1 (≈ 1.2 µM) | – | – | – | – | 8 (≈ 9.63 µM) | 8 (≈ 9.63 µM) | 0.125 (≈ 0.15 µM) | > 128 | > 128 | > 128 | > 128 | > 128 | –
11 | CC[C@H]1OC(=O)[C@H](C)[C@@H](O[C@H]2C[C@@](C)(OC)[C@@H](O)[C@H](C)O2)[C@H](C)[C@@H](O[C@@H]2O[C@H](C)C[C@H](N(C)C)[C@H]2O)[C@](C)(O)C[C@@H](C)[C@H](N2CCCCC2)[C@H](C)[C@@H](O)[C@]1(C)O [Compound 72, 9-Deoxo-9-(1-piperidinyl)erythromycin] | 16 (≈ 19.9 µM) | 2 (≈ 2.49 µM) | 128 (≈ 159 µM) | – | 1 (≈ 1.25 µM) | – | – | – | – | 8 (≈ 9.96 µM) | – | 1 (≈ 1.25 µM) | > 128 | > 128 | > 128 | > 128 | > 128 | –

From US5110800A, “Derivatives of erythromycylamine” (Eli Lilly and Company, priority 1989, dated 1992)
